Measurements published in patent publication US6162809A, “Pyridylthio compounds for controlling helicobacter bacteria” (Byk Gulden Lomberg Chemische Fabrik GmbH, priority 1994, dated 2000).
Where a name gives a salt, the structure may show the parent alone.

Test system: Helicobacter pylori
Experiment: activity against Helicobacter pylori (Columbia agar, growth period of 4 days)
Format: cell-based
Conditions: Columbia agar (Oxoid), approximate values; for MIC50: Helicobacter pylori, 96 h, read-out: Approx. MIC 50

| Compound | MIC50 [µg/mL] | Approx. MIC 50 |
| --- | --- | --- |
| Cc1ncsc1CCSc1ccnc(CSc2ccccn2)c1C [Compound 3, 3-Methyl-4-[2-(4-methyl-5-thiazolyl)ethylthio]2-[(2-pyridinylthio)methyl]pyridine] | ≤ 0.5 | – |
| Cc1c(SCc2ccco2)ccnc1CSc1ccncc1 [Compound 11, 4-(2-Furylmethylthio)-3-methyl-2-[(4-pyridinylthio)methyl]pyridine] | ≤ 0.5 | – |
| Cc1c(SCCCSc2ccncc2)ccnc1CSc1ccncc1 [Compound 14, 3-Methyl-2-[(4-pyridinylthio)methyl]-4-[5-(4-pyridinyl)-1,5-dithiapentyl]pyridine] | ≤ 0.5 | – |
| Cc1c(SCCCSC(=S)N(C)C)ccnc1CSc1ccncc1 [Compound 15, 4-[(3-Dimethyldithiocarbamoyl)propylthio]-3-methyl-2-[(4-pyridinylthio)methyl]pyridine] | ≤ 0.5 | – |
| 4-[3-(4-Phenyl-1-piperazinyl)propylthio]-2-[(4-pyridinylthio)methyl]pyridine [Compound 16] | – | ≤ 0,5 μg/ml |
| Cc1c(SCCCn2c([N+](=O)[O-])cnc2C)ccnc1CSc1ncccn1 [Compound 32, 3-Methyl-4-[3-(2-methyl-5-nitroimidazol-1-yl)propylthio]-2-[(2-pyrimidinylthio)methyl]pyridine] | ≤ 0.5 | – |
| Cc1c(SCCCSCCn2c([N+](=O)[O-])cnc2C)ccnc1CSc1ccncc1 [Compound 29, 4-[[7-(2-Methyl-5-nitroimidazol-1-yl)-1,5-dithiahept-1-yl]-3-methyl]-2-[(4-pyridinylthio)methyl]-pyridine dihydrochloride] | ≤ 0.5 | – |
| Cc1c(SCCCSc2ccncc2)ccnc1CSc1ccccn1 [Compound 6] | ≤ 0.5 | – |
